According to ChEMBL document CHEMBL5096190, “Recent advances of quinones as a privileged structure in drug discovery” (Eur J Med Chem, 2021):
≈ marks a conversion by molar mass, not a printed value. Values belong to the compound of their own block, whether it stands above or below them.

Legend:
[1] = molecular target: T1, Arylsulfatase A (Homo sapiens, UniProt P15289); test: Inhibition of ARSA (unknown origin) using 4-methylumbelliferyl sulfate (4-MUS) as a substrate by fluorescent assay
T1 sequence (P15289 whole entry): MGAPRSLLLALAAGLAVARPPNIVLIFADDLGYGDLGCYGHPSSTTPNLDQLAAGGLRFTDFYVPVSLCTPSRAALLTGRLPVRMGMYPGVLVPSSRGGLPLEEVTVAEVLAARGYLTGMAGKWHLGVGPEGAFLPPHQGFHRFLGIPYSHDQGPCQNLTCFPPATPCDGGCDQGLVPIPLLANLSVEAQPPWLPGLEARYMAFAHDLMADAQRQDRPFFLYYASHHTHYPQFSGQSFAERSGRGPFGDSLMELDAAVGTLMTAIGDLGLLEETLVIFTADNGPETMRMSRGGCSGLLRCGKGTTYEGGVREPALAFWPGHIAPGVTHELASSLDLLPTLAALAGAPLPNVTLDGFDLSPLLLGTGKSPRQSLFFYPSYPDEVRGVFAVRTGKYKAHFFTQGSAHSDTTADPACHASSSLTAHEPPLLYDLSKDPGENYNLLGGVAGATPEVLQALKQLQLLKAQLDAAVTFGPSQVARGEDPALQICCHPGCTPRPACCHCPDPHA

[2] = molecular target: T1, Arylsulfatase A; test: Binding affinity to ARSA (unknown origin) assessed as dissociation constant by SPR analysis
[3] = system: GBM; test: Anticancer activity against human GBM cells assessed as cell growth inhibition incubated for 72 hrs; format: functional, cell-based
[4] = Inhibition of NFAT activity in human GBM cells; format: cell-based
[5] = system: U-87 MG; test: Cytotoxicity against human U87 cells assessed as reduction in cell viability measured after 72 hrs by MTT assay; format: functional, cell-based, U-87MG ATCC
[6] = system: SGC-7901; test: Cytotoxicity against human SGC-7901 cells assessed as reduction in cell viability measured after 72 hrs by MTT assay; format: functional, cell-based; settings: SGC-7901, 72 h
[7] = system: MGC-803; test: Cytotoxicity against human MGC-803 cells assessed as reduction in cell viability measured after 72 hrs by MTT assay; format: functional, cell-based; settings: MGC-803, 72 h
[8] = system: Enterococcus hirae; test: Antibacterial activity against Enterococcus hirae ATCC 10541 assessed as growth inhibition after 24 hrs by two-fold serial dilution method; format: functional
[9] = Inhibition of Hepatitis C virus NS3 helicase measured by fluorescence helicase assay; design: species or system Hepacivirus hominis
[10] = system: BXPC-3; test: Antitumor activity against human BXPC-3 cells assessed as reduction in cell viability and incubated for 3 hrs by MTT assay; format: functional, cell-based; settings: BXPC-3, 3 h
[11] = system: PANC-1; test: Antitumor activity against human PANC-1 cells assessed as reduction in cell viability and incubated for 3 hrs by MTT assay; format: functional, cell-based; settings: PANC-1, 3 h
[12] = system: MIA PaCa-2; test: Antitumor activity against human MIA PaCa-2 cells assessed as reduction in cell viability and incubated for 3 hrs by MTT assay; format: functional, cell-based; settings: MIA PaCa-2, 3 h
[13] = molecular target: Cholinesterase (Homo sapiens, UniProt P06276); test: Inhibition of human BuChE at 550 uM using butyrylthiocholine chloride as substrate by Ellman's method
Chain of Cholinesterase (P06276 whole entry): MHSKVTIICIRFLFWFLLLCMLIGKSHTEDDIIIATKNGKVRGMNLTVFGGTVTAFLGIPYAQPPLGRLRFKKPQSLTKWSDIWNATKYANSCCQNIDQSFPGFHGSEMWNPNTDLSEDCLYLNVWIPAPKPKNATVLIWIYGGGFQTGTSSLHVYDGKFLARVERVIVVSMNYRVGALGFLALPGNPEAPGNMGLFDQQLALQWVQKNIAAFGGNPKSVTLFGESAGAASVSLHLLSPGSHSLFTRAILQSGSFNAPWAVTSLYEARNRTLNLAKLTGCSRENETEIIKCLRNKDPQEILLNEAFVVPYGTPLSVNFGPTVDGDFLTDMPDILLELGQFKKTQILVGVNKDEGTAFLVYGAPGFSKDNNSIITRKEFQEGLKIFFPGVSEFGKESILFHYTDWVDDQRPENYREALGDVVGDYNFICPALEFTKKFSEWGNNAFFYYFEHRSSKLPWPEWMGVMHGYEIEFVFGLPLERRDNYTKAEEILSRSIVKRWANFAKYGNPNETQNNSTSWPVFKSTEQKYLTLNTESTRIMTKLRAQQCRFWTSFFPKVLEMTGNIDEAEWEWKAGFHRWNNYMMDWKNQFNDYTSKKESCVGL

[14] = system: MOLT-4; test: Cytotoxicity against human MOLT-4 cells assessed as inhibition of cell growth incubated for 24 to 72 hrs by MTT assay; format: functional, cell-based

- IC50 [1]: 13.2 µM
- Kd [2]: 21 µM
SMILES: O=C1C=CC(=O)c2c1ccc1c2c(=O)oc2c3ccccc3ccc12

- IC50 [4]: 0.82 µM
SMILES: O=C1C=C(Nc2ccc3cnccc3c2)c2ccccc2C1=O

- MIC [8]: 4 µg/mL (≈ 9.9 µM)
SMILES: NC1=C(NC(=O)Cn2cc(CCBr)nn2)C(=O)c2ccccc2C1=O

- IC50 [9]: 0.8 µM
SMILES: O=C(O)c1cc(O)c2c(c1)[C@H]([C@@H]1c3cccc(O)c3C(=O)c3c(O)cc(C(=O)O)cc31)c1cccc(O)c1C2=O

- MIC [8]: 4 µg/mL (≈ 10.2 µM)
SMILES: NC1=C(NC(=O)Cn2cc(CC3CCCCC3)nn2)C(=O)c2ccccc2C1=O

- IC50 [9]: 6 µM
SMILES: O=C1c2c(O)ccc(O)c2C(=O)c2c(O)ccc(O)c21

- IC50 [10]: 2.7 µM
- IC50 [11]: 2.2 µM
- IC50 [12]: 1.9 µM
SMILES: CC(=O)c1ccccc1NC1=CC(=O)c2ncncc2C1=O

The remaining lines, values behind:

SMILES: Nc1c(-c2cccnc2)ncc2c1C(=O)c1c(-c3ccccn3)nn(-c3ccc(F)cc3F)c1C2=O
- IC50 [3]: 25 µM

SMILES: CC(C)=CCC(OC(=O)CCC(=O)Nc1ccc(Oc2ccccc2)cc1)C1=CC(=O)c2c(O)ccc(O)c2C1=O (stereo not drawn)
- IC50 [5]: 3.8 µM
- IC50 [6]: 4.1 µM
- IC50 [7]: 4.1 µM

SMILES: CC1=C(NC2CCN(Cc3ccccc3)CC2)C(=O)c2ccccc2C1=O
- IC50 [13]: 0.0957 µM

SMILES: Nc1c(-c2ccccc2)ncc2c1C(=O)c1c(-c3ccccn3)nn(-c3ccc(F)cc3F)c1C2=O
- IC50 [3]: 25 µM

SMILES: C[C@@]12CCC(=O)c3coc(c31)C(=O)c1cc3c(cc12)C(=O)C=CC3=O [HELENAQUINONE]
- IC50 [14]: 1.44 µM

SMILES: Cc1cc(O)c2c(=O)c3c(O)cc(O)c4c5c(O)cc(O)c6c(=O)c7c(O)cc(C)c8c1c2c(c34)c(c78)c65 [HYPERICIN]
- IC50 [9]: 3 µM
